The record followed here is patent US9573954B2, “Pyrazolopyrimidine compounds” (University Health Network, priority 2012, dated 2017).

In the first assay the target is T1, human TTK (Homo sapiens, UniProt P33981).
T1 construct: Active TTK was purchased from Invitrogen as an amino terminal GST fusion of full length human TTK; purchased Invitrogen
T1 sequence (P33981 1-857): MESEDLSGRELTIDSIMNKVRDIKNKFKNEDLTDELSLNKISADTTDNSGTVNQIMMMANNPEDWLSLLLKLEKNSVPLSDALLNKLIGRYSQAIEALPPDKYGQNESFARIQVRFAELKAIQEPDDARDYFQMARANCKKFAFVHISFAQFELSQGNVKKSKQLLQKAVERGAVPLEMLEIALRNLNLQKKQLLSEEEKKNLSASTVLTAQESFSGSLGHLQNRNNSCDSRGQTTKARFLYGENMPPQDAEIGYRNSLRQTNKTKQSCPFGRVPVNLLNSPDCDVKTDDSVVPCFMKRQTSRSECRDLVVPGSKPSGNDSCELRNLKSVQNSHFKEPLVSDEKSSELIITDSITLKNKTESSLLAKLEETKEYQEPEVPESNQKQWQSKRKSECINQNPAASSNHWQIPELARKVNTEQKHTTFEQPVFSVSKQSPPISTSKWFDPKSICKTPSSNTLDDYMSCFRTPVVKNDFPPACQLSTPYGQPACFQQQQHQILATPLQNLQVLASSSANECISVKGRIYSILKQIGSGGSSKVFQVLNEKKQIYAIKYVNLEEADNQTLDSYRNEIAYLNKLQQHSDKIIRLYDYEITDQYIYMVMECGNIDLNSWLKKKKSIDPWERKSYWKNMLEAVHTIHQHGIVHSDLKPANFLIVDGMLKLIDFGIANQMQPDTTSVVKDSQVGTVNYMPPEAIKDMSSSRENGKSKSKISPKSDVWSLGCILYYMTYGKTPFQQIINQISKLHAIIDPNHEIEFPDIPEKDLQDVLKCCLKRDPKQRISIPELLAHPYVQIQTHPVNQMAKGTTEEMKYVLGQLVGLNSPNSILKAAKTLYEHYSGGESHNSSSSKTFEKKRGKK
Put plainly: TTK inhibition assay (indirect ELISA). It counts as biochemical. The following applies: 16 μM ATP (Sigma cat# A7699); read-out: TTK IC50 Range (denoted with an asterisk). As for the experimental part:
Active TTK was purchased from Invitrogen as an amino terminal GST fusion of full length human TTK.
TTK activity was measured using an indirect ELISA detection system.
Compounds were pre-incubated in the presence of enzyme for 5 minutes prior to addition of ATP and the activity remaining quantified using the above described activity assay. The % Inhibition of a compound was determined using the following formula; % Inhibition=100×(1−(experimental value−background value)/(high activity control−background value)). The IC50 value was determined using a non-linear 4 point logistic curve fit (XLfit4, IDBS) with the formula; (A+(B/(1+((x/C)^D)))), where A=background value, B=range, C=inflection point, D=curve fit parameter.
A general note: ELISA stands for enzyme-linked immunosorbent assay.
Broadly, the IC50 is the concentration that gives 50% inhibition. As to `Cc1cc(-c2cnn3c(NCC4CCOCC4)nc(NC4CCCC4)nc23)ccc1NC(=O)C1CC1` [Example C18], the half-maximal inhibitory concentration (IC50) was above 500 nM. Still for that read-out and setting: to `CN(c1nc(NCC2CCOCC2)n2ncc(-c3ccc(C(=O)NC4CC4)c(F)c3)c2n1)C1CCCCC1` [Example C15] belongs below 100 nM. On the same count and under the same terms, to `Cc1cc(-c2cnn3c(NCC4CCOCC4)nc(Oc4ccccc4)nc23)ccc1NC(=O)C1CC1` [Example C17] belongs above 500 nM.

The same assay, now with this note: 100 μM ATP; read-out: TTK IC50 Range.
With `Cc1cc(-c2cnn3c(NCC4CCOCC4)cc(NCc4ccccn4)nc23)ccc1C(=O)NC1CC1` [Example C73], the IC50 is below 100 nM. As to `Cc1cc(-c2cnn3c(NCC(C)C)cc(-c4cccc5ncccc45)nc23)ccc1C(=O)NC1CC1` [Example C154], the half-maximal inhibitory concentration (IC50) lay within 100 to 500 nM.

As to `Cc1cc(-c2cnn3c(NCC(C)C)cc(Nc4cccnc4)nc23)ccc1C(=O)NC1CC1` [Example C160], the IC50 was below 100 nM.

Take `Cc1cc(-c2cnn3c(NCCN4CCOCC4)cc(Nc4ccccc4)nc23)ccc1C(=O)NC1CC1` [Example C60]: the concentration for half-maximal inhibition (IC50) was below 100 nM. On to `Cc1cc(-c2cnn3c(NCC4CCOCC4)cc(N4CCC(O)CC4)nc23)ccc1C(=O)NC1CC1` [Example C67], for which the IC50 was below 100 nM.

As to `Cc1cc(-c2cnn3c(NCCN4CCOCC4)cc(O[C@@H]4CCOC4)nc23)ccc1C(=O)NC1CC1` [Example C137], the IC50 is below 100 nM. The same measure, in the same setting: under `Cc1cc(-c2cnn3c(NCC4CCOCC4)cc(NC(CO)CO)nc23)ccc1C(=O)NC1CC1` [Example C110] stands below 100 nM; under `Cc1cc(-c2cnn3c(NCCN4CCOCC4)cc(Oc4cccc(S(C)(=O)=O)c4)nc23)ccc1C(=O)NC1CC1` [Example C86], 100 to 500 nM.

As to `Cc1cc(-c2cnn3c(NCCN4CCOCC4)cc(NCC4CC4)nc23)ccc1C(=O)NC1CC1` [Example C76], the IC50 was below 100 nM. Take `Cc1cc(-c2cnn3c(NCC4CCOCC4)cc(N4CC(O)C4)nc23)ccc1C(=O)NC1CC1` [Example C69]: the IC50 fell in the range of 100 to 500 nM. For the compound `CC[C@H](Nc1cc(NCCN2CCOCC2)n2ncc(-c3ccc(C(=O)NC4CC4)c(C)c3)c2n1)[C@H](C)O` [Example C119], the IC50 is below 100 nM. Still for that read-out and setting: under `Cc1cc(-c2cnn3c(NCCN4CCOCC4)cc(OC4COC4)nc23)ccc1C(=O)NC1CC1` [Example C101] stands 100 to 500 nM. The same measure, in the same setting: under `Cc1cc(-c2cnn3c(NCCN4CCC(F)(F)CC4)cc(Oc4cnn(C)c4)nc23)ccc1C(=O)NC1CC1` [Example C185] stands below 100 nM.

On to `Cc1cc(-c2cnn3c(NCC4CCOCC4)cc(N4CC[C@H](CO)C4)nc23)ccc1C(=O)NC1CC1` [Example C166], for which the IC50 is below 100 nM. Consider `Cc1cc(-c2cnn3c(NCC4CCOCC4)cc(N4CC[C@@H](O)C4)nc23)ccc1C(=O)NC1CC1` [Example C142], for which the IC50 lay within 100 to 500 nM. Regarding `COC(C)(C)CNc1cc(N[C@@H](C(C)C)C(C)(C)O)nc2c(-c3ccc(C(=O)NC4CC4)c(C)c3)cnn12` [Example C128], the IC50 was below 100 nM. Take `Cc1cc(-c2cnn3c(NCC4CCOCC4)cc(N4CC5(CC(O)C5)C4)nc23)ccc1C(=O)NC1CC1` [Example C162]: the IC50 was below 100 nM. For `Cc1cc(-c2cnn3c(NCCN4CCOCC4)cc(NC4CCOCC4)nc23)ccc1C(=O)NC1CC1` [Example C53], the half-inhibitory concentration (IC50) was below 100 nM. Take `COC(C)(C)CNc1cc(N[C@H]2CCC[C@H]2O)nc2c(-c3ccc(C(=O)NC4CC4)c(C)c3)cnn12` [Example C129]: the IC50 is below 100 nM. Still for that read-out and setting: to `Cc1cc(-c2cnn3c(NC[C@H]4CCCO4)cc(NC4CCOCC4)nc23)ccc1C(=O)NC1CC1` [Example C63] belongs below 100 nM. `Cc1cc(-c2cnn3c(NCC4CCOCC4)cc(OCCN4CCOCC4)nc23)ccc1C(=O)NC1CC1` [Example C117]: the IC50 is below 100 nM.

Consider `Cc1cc(-c2cnn3c(NCCN4CCC(F)(F)CC4)cc(NC4CCCC4)nc23)ccc1C(=O)NC1CC1` [Example C184], for which the half-maximal inhibitory concentration (IC50) is below 100 nM. In the case of `Cc1cc(-c2cnn3c(NCC4CCOCC4)cc(NC4CCN(C5COC5)CC4)nc23)ccc1C(=O)NC1CC1` [Example C122], the IC50 is below 100 nM. Regarding `CC(=O)N1CCN(c2cc(NCC3CCOCC3)n3ncc(-c4ccc(C(=O)NC5CC5)c(C)c4)c3n2)CC1` [Example C84], the IC50 was below 100 nM. Same read-out and setting: under `Cc1cc(-c2cnn3c(NCC4(N(C)C)CCOCC4)cc(Oc4ccccc4)nc23)ccc1C(=O)NC1CC1` [Example C106] stands 100 to 500 nM; under `Cc1cc(-c2cnn3c(NCC(C)C)cc(Oc4ccncc4)nc23)ccc1C(=O)NC1CC1` [Example C149], 100 to 500 nM; under `Cc1cc(-c2cnn3c(NCCCn4ccnc4)cc(NC4CCCC4)nc23)ccc1C(=O)NC1CC1` [Example C70], below 100 nM.

For `Cc1cc(-c2cnn3c(NC[C@@H]4CCCO4)cc(NC4CCCC4)nc23)ccc1C(=O)NC1CC1` [Example C64], the IC50 is below 100 nM. In the case of `Cc1cc(-c2cnn3c(NCC4CCOCC4)cc(N4C5CCC4COC5)nc23)ccc1C(=O)NC1CC1` [Example C112], the IC50 is below 100 nM.

`Cc1cc(-c2cnn3c(NCC4CCOCC4)cc(N4CC[C@@H](CO)C4)nc23)ccc1C(=O)NC1CC1` [Example C167]: the IC50 was below 100 nM. Regarding `Cc1cc(-c2cnn3c(NC[C@@H]4CCCO4)cc(NC4CCOCC4)nc23)ccc1C(=O)NC1CC1` [Example C65], the IC50 was below 100 nM. Take `Cc1cc(-c2cnn3c(NCCO)cc(NC4CCCC4)nc23)ccc1C(=O)NC1CC1` [Example C81]: the IC50 is below 100 nM. Same read-out and setting: under `Cc1cc(-c2cnn3c(NCCN4CCOCC4)cc(Oc4cccc(N5CCOCC5)c4)nc23)ccc1C(=O)NC1CC1` [Example C91] stands below 100 nM.

Still in this assay, the particulars now being: Table 1; 16 μM ATP (asterisk); read-out: TTK IC50 Range.
As to `O=C(NC1CC1)c1ccc(-c2cnn3c(NCCN4CCOCC4)nc(N4CCC(O)CC4)nc23)cc1` [Example A9, N-cyclopropyl-4-(2-(4-hydroxypiperidin-1-yl)-4-((2-morpholinoethyl)amino)pyrazolo[1,5-a][1,3,5]triazin-8-yl)benzamide], the IC50 was above 500 nM. Same read-out and setting: to `Cc1cc(-c2cnn3c(NCC4CCOCC4)nc(N(C)C)nc23)ccc1C(=O)NC1CC1` [Example A1, N-Cyclopropyl-4-(2-(dimethylamino)-4-(((tetrahydro-2H-pyran-4-yl)methyl)amino)pyrazolo[1,5-a][1,3,5]triazin-8-yl)-2-methylbenzamide] belongs 100 to 500 nM.

Staying with this assay, now noted: Table 2; 16 μM ATP (asterisk); read-out: TTK IC50 Range.
Consider `COCCNc1cc(Oc2cccnc2)nc2c(-c3ccc(C(=O)NC4CC4)cc3)cnn12` [Example B4, N-cyclopropyl-4-(7-((2-methoxyethyl)amino)-5-(pyridin-3-yloxy)pyrazolo[1,5-a]pyrimidin-3-yl)benzamide], for which the IC50 is below 100 nM.

As to `Cc1cc(-c2cnn3c(NCC(C)(C)O)cc(NC4CCOCC4)nc23)ccc1C(=O)NC1CC1` [Example B32, N-cyclopropyl-4-(7-((2-hydroxy-2-methylpropyl)amino)-5-((tetrahydro-2H-pyran-4-yl)amino)pyrazolo[1,5-a]pyrimidin-3-yl)-2-methylbenzamide], the IC50 is below 100 nM. Still for that read-out and setting: under `Cc1cc(-c2cnn3c(NCC(C)(C)O)cc(Oc4ccccc4)nc23)ccc1C(=O)NC1CC1` [Example B27, N-cyclopropyl-4-(7-((2-hydroxy-2-methylpropyl)amino)-5-phenoxypyrazolo[1,5-a]pyrimidin-3-yl)-2-methylbenzamide] stands below 100 nM; under `Cc1cc(-c2cnn3c(NCC(C)(C)O)cc(Oc4cccnc4)nc23)ccc1C(=O)NC1CC1` [Example B28, N-cyclopropyl-4-(7-((2-hydroxy-2-methylpropyl)amino)-5-(pyridin-3-yloxy)pyrazolo[1,5-a]pyrimidin-3-yl)-2-methylbenzamide], below 100 nM; under `Cc1cc(-c2cnn3c(NCC4CCOCC4)cc(NC4CCCC4)nc23)ccc1NC(=O)C1CC1` [Example B15, N-(4-(5-(cyclopentylamino)-7-(((tetrahydro-2H-pyran-4-yl)methyl)amino)pyrazolo[1,5-a]pyrimidin-3-yl)-2-methylphenyl)cyclopropanecarboxamide], above 500 nM.

In the case of `Cc1cc(-c2cnn3c(NC[C@H]4CC[C@H](O)CC4)cc(NC4CCOCC4)nc23)ccc1C(=O)NC1CC1` [Example B33, N-cyclopropyl-4-(7-((((1r,4r)-4-hydroxycyclohexyl)-methyl)amino)-5-((tetrahydro-2H-pyran-4-yl)amino)pyrazolo[1,5-a]pyrimidin-3-yl)-2-methylbenzamide], the IC50 was below 100 nM.
